Reference: ChEMBL document CHEMBL5291721, “A preclinical secondary pharmacology resource illuminates target-adverse drug reaction associations of marketed drugs” (Nat Commun, 2023)

What was measured:
[1] = target: T1, Gamma-aminobutyric acid receptor subunit alpha-1 (Rattus norvegicus, UniProt P62813)
[2] = target: 3',5'-cyclic-AMP phosphodiesterase 4D (Homo sapiens, UniProt Q08499); format: functional
[3] = target: cGMP-inhibited 3',5'-cyclic phosphodiesterase 3A (Homo sapiens, UniProt Q14432); format: functional
cGMP-inhibited 3',5'-cyclic phosphodiesterase 3A, sequence (Q14432 whole entry): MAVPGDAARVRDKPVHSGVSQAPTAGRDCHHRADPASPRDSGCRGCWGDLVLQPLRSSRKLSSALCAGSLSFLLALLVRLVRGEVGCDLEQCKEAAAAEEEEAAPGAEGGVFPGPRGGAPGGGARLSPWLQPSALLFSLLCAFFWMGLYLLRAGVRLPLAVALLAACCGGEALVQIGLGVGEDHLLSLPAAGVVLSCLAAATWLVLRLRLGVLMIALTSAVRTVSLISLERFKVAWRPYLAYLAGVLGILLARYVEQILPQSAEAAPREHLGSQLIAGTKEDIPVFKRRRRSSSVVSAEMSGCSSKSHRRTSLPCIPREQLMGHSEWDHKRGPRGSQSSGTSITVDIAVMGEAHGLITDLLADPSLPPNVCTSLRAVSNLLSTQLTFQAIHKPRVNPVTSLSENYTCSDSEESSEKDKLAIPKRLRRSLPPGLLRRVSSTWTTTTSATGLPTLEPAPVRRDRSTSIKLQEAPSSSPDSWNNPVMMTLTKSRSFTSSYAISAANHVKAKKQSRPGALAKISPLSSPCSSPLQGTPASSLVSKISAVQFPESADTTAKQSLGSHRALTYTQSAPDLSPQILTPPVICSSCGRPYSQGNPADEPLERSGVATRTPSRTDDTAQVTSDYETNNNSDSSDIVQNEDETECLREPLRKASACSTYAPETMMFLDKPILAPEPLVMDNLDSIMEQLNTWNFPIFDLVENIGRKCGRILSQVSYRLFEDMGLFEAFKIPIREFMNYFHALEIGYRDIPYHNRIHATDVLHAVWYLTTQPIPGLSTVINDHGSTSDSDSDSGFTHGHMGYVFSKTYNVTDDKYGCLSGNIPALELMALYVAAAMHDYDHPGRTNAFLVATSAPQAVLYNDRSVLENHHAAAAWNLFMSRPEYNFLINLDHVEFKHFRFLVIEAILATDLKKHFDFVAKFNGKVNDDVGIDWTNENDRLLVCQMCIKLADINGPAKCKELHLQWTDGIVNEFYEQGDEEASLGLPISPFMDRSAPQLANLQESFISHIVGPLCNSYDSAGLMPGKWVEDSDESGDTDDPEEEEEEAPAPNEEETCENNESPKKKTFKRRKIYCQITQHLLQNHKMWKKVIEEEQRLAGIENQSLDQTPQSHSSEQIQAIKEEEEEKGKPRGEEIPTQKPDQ

[4] = target: T2, Alpha-1A adrenergic receptor (Homo sapiens, UniProt P35348); format: functional, cell-based
T2 sequence (P35348 whole entry): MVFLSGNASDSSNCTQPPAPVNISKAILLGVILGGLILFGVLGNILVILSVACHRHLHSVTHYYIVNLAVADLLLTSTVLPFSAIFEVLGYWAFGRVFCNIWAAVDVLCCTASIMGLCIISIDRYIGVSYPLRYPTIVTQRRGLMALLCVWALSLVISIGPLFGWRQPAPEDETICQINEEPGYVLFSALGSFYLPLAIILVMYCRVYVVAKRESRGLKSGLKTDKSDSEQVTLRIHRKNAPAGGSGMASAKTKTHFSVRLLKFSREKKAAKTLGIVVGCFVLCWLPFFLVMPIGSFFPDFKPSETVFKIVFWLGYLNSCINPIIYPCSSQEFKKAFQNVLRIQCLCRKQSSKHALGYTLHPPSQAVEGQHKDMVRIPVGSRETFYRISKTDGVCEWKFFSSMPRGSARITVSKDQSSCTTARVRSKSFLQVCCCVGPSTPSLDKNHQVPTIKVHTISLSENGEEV

Glucocorticoid receptor = target: T3, Glucocorticoid receptor (Homo sapiens, UniProt P04150)
T3 sequence (P04150 whole entry): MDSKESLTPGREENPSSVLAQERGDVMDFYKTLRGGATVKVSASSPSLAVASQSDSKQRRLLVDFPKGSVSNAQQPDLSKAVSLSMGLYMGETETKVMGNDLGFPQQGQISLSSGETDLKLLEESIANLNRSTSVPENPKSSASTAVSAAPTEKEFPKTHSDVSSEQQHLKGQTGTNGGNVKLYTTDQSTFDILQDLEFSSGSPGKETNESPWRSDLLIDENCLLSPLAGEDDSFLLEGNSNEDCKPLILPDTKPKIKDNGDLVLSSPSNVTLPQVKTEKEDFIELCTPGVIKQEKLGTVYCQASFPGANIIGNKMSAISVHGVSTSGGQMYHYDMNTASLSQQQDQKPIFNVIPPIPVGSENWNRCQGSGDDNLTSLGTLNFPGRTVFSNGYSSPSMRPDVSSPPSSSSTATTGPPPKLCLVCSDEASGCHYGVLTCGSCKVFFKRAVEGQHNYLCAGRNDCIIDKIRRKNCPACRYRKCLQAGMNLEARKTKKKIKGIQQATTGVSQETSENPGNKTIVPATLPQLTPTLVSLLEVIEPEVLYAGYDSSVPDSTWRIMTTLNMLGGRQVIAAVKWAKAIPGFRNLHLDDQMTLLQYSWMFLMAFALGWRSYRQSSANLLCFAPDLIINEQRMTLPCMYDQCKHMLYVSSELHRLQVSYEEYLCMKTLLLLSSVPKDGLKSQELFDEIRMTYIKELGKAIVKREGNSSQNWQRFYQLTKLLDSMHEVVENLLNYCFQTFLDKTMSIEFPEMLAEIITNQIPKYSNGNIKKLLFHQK

[5] = target: T4, Prostaglandin G/H synthase 1 (Rattus norvegicus, UniProt Q63921); format: functional
T4 sequence (Q63921 whole entry): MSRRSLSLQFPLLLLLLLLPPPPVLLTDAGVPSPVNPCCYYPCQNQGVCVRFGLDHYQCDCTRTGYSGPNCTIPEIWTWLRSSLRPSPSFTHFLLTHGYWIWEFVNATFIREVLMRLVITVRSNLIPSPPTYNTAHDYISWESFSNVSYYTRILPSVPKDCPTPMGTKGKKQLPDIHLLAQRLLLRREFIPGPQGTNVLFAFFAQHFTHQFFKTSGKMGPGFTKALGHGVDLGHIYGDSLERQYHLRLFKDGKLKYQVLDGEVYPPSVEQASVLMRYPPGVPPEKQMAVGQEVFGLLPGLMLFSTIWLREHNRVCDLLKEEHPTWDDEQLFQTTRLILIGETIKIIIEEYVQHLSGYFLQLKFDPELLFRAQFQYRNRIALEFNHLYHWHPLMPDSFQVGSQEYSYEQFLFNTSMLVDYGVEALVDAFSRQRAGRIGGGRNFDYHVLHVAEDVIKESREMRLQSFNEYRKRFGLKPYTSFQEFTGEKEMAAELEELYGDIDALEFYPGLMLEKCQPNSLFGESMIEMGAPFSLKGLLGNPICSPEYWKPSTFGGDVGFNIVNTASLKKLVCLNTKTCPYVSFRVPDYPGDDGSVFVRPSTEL

[6] = target: 5-hydroxytryptamine receptor 2B (Homo sapiens, UniProt P41595); format: functional, cell-based
5-hydroxytryptamine receptor 2B, sequence (P41595 whole entry): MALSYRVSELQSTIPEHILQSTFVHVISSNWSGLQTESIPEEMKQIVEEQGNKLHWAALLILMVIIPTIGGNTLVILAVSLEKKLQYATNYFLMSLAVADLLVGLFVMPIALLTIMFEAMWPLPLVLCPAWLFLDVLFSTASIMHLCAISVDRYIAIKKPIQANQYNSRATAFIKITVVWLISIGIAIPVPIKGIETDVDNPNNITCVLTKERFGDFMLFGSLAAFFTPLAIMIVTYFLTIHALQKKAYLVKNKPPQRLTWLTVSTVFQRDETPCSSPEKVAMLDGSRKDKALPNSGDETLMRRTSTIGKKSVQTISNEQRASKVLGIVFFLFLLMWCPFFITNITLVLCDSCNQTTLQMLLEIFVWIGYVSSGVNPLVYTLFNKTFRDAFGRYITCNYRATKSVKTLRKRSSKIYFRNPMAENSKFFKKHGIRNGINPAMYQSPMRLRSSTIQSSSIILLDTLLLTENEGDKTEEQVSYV

[7] = target: T1, Gamma-aminobutyric acid receptor subunit alpha-1; format: functional
[8] = target: T5, Alpha-2A adrenergic receptor (Homo sapiens, UniProt P08913); format: functional, cell-based
T5 sequence (P08913 whole entry): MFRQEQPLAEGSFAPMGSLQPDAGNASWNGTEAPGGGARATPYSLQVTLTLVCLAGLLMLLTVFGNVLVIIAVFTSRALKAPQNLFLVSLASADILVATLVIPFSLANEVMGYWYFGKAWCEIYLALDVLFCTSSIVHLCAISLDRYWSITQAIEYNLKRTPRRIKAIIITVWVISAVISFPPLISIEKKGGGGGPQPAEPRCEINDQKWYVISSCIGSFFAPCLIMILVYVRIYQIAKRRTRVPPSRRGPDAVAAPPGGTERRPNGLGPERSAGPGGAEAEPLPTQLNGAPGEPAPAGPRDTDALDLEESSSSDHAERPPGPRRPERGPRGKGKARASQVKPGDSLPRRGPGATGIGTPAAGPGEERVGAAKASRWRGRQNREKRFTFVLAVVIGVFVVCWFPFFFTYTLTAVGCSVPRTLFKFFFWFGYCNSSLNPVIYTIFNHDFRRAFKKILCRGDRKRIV

Melanocortin receptor 3 = Melanocortin receptor 3 (Homo sapiens, UniProt P41968)
Melanocortin receptor 3, sequence (P41968 whole entry): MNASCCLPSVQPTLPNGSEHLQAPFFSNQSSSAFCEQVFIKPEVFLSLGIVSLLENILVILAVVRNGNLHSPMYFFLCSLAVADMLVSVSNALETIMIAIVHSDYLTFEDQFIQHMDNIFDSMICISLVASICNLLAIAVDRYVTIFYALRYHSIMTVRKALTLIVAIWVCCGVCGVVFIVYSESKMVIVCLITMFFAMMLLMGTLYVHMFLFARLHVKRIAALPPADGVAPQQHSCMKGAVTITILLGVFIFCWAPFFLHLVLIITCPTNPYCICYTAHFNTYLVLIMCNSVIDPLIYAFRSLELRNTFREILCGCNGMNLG
Note: assay procedure not described here.

T1 sequence (P62813 whole entry): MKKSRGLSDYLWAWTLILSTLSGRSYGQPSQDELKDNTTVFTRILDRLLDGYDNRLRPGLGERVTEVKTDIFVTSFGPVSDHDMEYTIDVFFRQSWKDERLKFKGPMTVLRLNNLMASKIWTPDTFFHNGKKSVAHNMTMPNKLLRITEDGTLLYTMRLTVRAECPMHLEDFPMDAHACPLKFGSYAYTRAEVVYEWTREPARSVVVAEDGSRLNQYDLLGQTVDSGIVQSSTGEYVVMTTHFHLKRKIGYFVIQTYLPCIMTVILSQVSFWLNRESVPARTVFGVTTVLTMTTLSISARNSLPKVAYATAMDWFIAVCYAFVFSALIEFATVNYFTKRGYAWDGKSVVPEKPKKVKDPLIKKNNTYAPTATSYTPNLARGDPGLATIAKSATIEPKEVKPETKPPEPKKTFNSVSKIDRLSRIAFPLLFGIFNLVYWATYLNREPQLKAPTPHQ
3',5'-cyclic-AMP phosphodiesterase 4D, sequence (Q08499 whole entry): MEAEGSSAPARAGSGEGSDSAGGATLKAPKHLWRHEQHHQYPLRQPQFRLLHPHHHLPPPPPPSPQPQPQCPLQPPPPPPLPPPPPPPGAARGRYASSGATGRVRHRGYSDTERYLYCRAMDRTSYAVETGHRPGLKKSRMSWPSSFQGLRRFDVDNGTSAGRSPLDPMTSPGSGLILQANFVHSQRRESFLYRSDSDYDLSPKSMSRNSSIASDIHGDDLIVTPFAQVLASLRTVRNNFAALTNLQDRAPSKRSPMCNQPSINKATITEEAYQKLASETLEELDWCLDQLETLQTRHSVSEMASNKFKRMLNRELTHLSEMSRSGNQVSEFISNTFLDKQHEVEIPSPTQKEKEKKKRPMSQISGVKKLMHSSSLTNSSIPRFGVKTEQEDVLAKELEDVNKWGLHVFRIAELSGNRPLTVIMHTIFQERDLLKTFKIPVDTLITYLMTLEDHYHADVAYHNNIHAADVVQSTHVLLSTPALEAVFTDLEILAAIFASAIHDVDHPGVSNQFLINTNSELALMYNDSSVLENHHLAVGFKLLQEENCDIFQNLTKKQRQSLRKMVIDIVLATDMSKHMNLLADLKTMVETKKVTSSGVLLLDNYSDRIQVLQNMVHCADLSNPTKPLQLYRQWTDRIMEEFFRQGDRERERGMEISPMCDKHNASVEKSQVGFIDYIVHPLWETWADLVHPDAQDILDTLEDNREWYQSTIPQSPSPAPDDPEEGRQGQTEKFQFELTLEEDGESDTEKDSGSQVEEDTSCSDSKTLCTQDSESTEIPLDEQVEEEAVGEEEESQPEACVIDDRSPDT

For `COC(=O)[C@H]1[C@H]2C[C@@H]3c4[nH]c5cc(OC)ccc5c4CCN3C[C@H]2C[C@@H](OC(=O)c2cc(OC)c(OC)c(OC)c2)[C@@H]1OC` [RESERPINE], which AC50 [1] is on record?
The AC50 was > 10 µM.

What about the AC50 [2] of the same molecule?
The AC50 was > 30 µM.

What about the AC50 [3] of the same molecule?
The AC50 was > 30 µM.

What about the AC50 [4] of the same molecule?
The AC50 was > 30 µM.

And the AC50 (Glucocorticoid receptor)?
Its AC50 is > 10 µM.

And the AC50 [5]?
Its AC50 is 18.8 µM.

And the AC50 [6]?
The AC50 was > 10 µM.

And the AC50 [7]?
The AC50 was > 10 µM.

What about the AC50 [8] of the same molecule?
Its AC50 is > 10 µM.

What about the AC50 (Melanocortin receptor 3) of the same molecule?
The AC50 was > 10 µM.
